# Like-named read-outs stand apart in the source and are kept apart here. *1 amine or outer side, *2 acyl side, *3 side chain or, on linkers, in order; H or OH if unused. Where a SMILES comes first, the peptide text is derived from it. [ ]: non-standard residue; d: D form. The star is where a group is joined. ξ: configuration not given here. NH(3-guanidinomethylbenzyl) = NC(N)=NCc1cccc(CN*)c1; NH(3-OCH2COOH-benzyl) = O=C(O)COc1cccc(CN*)c1; X1 = NCc1cccc(CC(N[*:1])C(=O)[*:2])c1; Sta = CC(C)C[C@H](N)[C@@H](O)CC(=O)O; NHCH2CH2SO3H = O=S(=O)(O)CCN*; X4 = NC(Cc1cccc(CN*)c1)C(=O)O; X3 = [O-][n+]1ccc(CN*)cc1; ξPhg = NC(C(=O)O)c1ccccc1; Boc = CC(C)(C)OC(=O)*; X2 = NC(CN*)c1ccccn1
# Key:
# [1] = Solubility of the peptides in pH 7.4 buffer and in H2O; type: physicochemical
# Description: (§1) Following the standard solid phase methodology described above in Example 1, additional inhibitory peptides of the present invention were prepared. The peptides prepared are set out in the following table. Satisfactory amino acid analyses were obtained by Spinco method for each listed peptide. Also included in the table is solubility data of three types from which the improved solubility characteristics of the peptides of the present invention may be judged.
# Partition coefficient = type: physicochemical
# Description: as §1
# human kidney renin = molecular target: T1, human kidney renin (Homo sapiens, UniProt P00797); test: Inhibition of purified human kidney renin; type: biochemical; conditions: dissociation constant of the inhibited enzyme-inhibitor complex
# T1 construct: human kidney renin purified as described in Bangham; from tissue; host or cells: human kidney
# T1 sequence (P00797 67-406): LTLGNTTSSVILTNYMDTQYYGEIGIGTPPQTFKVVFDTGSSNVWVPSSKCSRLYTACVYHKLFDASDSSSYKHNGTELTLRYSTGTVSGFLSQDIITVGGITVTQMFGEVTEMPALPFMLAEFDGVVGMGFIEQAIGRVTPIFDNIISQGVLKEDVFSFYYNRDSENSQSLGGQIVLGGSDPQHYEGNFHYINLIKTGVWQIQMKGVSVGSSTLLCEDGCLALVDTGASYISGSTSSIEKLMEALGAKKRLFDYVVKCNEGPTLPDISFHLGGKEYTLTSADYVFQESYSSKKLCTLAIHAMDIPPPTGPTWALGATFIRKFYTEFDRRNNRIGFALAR
# Description: (§2) Assays were carried out in order to determine the inhibitory potency of the peptides of the present invention. […] Another assay measured the inhibition of human kidney renin purified as described in Bangham, D. R., Robertson, I., Robinson, J. I. S., Robinson, C. J., and Tree, M., Clinical Science and Molecular Medicine, 48 (Supp. 2): 136s-159s (1975), and further purified by affinity chromatography on pepstatin-aminohexyl-Sepharase described in Poe, M., Wu., J. K., Florance, J. R., Radkey, J. A., Bennet, C. D., and Hoogsteen, K., J. Biol. Chem. 258:2209-2216 (1983). The assay was also in accordance with Poe et al. cited above. Further assays measured human plasma renin and dog plasma renin in accordance with procedures described in Biger et al, Nature, 303:81-84 (1983).
# The results expressed as KI values refer to the dissociation constant of the inhibited enzyme-inhibitor complex. This KI value was obtained as described above.
# human plasma renin = molecular target: T2, human plasma renin (Homo sapiens, UniProt P00797); test: Inhibition of human plasma renin; type: biochemical
# T2 construct: Further assays measured human plasma renin and dog plasma renin; from tissue; host or cells: human plasma
# T2 sequence (P00797 67-406): T1 sequence (P00797 67-406)
# Description: as §2
# dog plasma renin = molecular target: T3, dog plasma renin (Canis lupus familiaris, UniProt Q6DYE7); test: Inhibition of dog plasma renin; type: biochemical; conditions: for Dog Plasma, % inhibition at 1000: at 1000 .eta.M
# T3 construct: Further assays measured human plasma renin and dog plasma renin; from tissue; host or cells: dog plasma
# T3 sequence (Q6DYE7 66-403): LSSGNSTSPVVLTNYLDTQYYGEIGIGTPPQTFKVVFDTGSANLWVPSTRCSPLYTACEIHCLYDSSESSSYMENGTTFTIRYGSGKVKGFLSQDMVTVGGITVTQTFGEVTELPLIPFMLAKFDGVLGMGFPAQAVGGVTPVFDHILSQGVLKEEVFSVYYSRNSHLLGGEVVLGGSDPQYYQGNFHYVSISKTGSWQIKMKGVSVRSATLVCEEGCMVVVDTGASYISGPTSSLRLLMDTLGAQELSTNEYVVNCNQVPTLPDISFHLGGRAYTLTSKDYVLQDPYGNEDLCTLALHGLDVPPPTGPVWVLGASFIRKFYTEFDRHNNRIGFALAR
# Description: as §2
# nephrectomized rats = conditions: after the injection of hog renin into nephrectomized rats; cited from earlier work
# [2] = pH 7.4, aqueous buffer, pH 7.4 Buffer mg/ml (solubility)
# [3] = water, H2O, read-out: H2O mg/ml (solubility)
Compound,"solubility [1, 2] [mg/mL]","solubility ([1]; water, H2O mg/ml (solubility)) [mg/mL]",Partition Coefficient (Partition coefficient),Ki (human kidney renin) [nM],also measured
CC(C)C[C@H](NC(=O)C[C@H](O)[C@H](CC(C)C)NC(=O)[C@H](Cc1c[nH]cn1)NC(=O)[C@H](Cc1ccccc1)NC(=O)OC(C)(C)C)C(=O)NCc1cccc(OCC(=O)O)c1 [Example 9] (Boc-FH[Sta]L-{NH(3-OCH2COOH-benzyl)}),1.5,0.23,infinity,–,–
CC(C)C[C@H](NC(=O)C[C@H](O)[C@H](CC(C)C)NC(=O)[C@H](Cc1c[nH]cn1)NC(=O)[C@H](Cc1ccccc1)NC(=O)OC(C)(C)C)C(=O)NCCS(=O)(=O)O [Example 10] (Boc-FH[Sta]L-NHCH2CH2SO3H),> 9,> 9,4.34,–,–
CC(C)C[C@H](NC(=O)C[C@H](O)[C@H](CC(C)C)NC(=O)[C@H](Cc1c[nH]cn1)NC(=O)[C@H](Cc1ccccc1)NC(=O)OC(C)(C)C)C(=O)NCC(N)c1ccccn1 (stereo partly drawn) [Example 2] (Boc-FH[Sta]L-X2),0.32,0.71,infinity,–,–
CC(C)C[C@H](NC(=O)C[C@H](O)[C@H](CC(C)C)NC(=O)[C@H](Cc1c[nH]cn1)NC(=O)[C@H](Cc1ccccc1)NC(=O)OC(C)(C)C)C(=O)NCc1cc[n+]([O-])cc1 [Example 7] (Boc-FH[Sta]L-X3),3.3,5.1,–,–,–
CC(C)C[C@H](NC(=O)C[C@H](O)[C@H](CC(C)C)NC(=O)[C@H](Cc1c[nH]cn1)NC(=O)[C@H](Cc1ccccc1)NC(=O)OC(C)(C)C)C(=O)NCc1cccc(CN=C(N)N)c1 [Example 3] (Boc-FH[Sta]L-{NH(3-guanidinomethylbenzyl)}),0.77,2.46,10.6,–,–
pepstatin,–,–,–,–,blood pressure in vivo (nephrectomized rats): reduce blood pressure

# Second part, led by results:
"solubility [1, 2] [mg/mL]","solubility ([1]; water, H2O mg/ml (solubility)) [mg/mL]",Partition Coefficient (Partition coefficient),Ki (human kidney renin) [nM],Compound,also measured
1.3,0.33,68.2,4.9,CC(C)C[C@H](NC(=O)C[C@H](O)[C@H](CC(C)C)NC(=O)[C@H](Cc1c[nH]cn1)NC(=O)[C@H](Cc1ccccc1)NC(=O)OC(C)(C)C)C(=O)NC(Cc1cccc(CN)c1)C(=O)O (stereo partly shown) [Example 4] (Boc-FH[Sta]L[X1]-OH),–
–,–,–,12,CC(C)C[C@H](NC(=O)C[C@H](O)[C@H](CC(C)C)NC(=O)[C@H](Cc1c[nH]cn1)NC(=O)[C@H](Cc1ccccc1)NC(=O)OC(C)(C)C)C(=O)NCc1cccc(CC(N)C(=O)O)c1 (stereo partly drawn) [Example 6] (Boc-FH[Sta]L-X4),"Human Plasma, % inhibition at (concentration not given) (human plasma renin): 15%; IC50 (dog plasma renin; read-out: Dog Plasma I50): 120 nM"
–,–,16.5,990,CC(C)C[C@H](NC(=O)C[C@H](O)[C@H](CC(C)C)NC(=O)[C@H](Cc1c[nH]cn1)NC(=O)[C@H](Cc1ccccc1)NC(=O)OC(C)(C)C)C(=O)NC(C(=O)O)c1ccccc1 (stereo partly shown) [Example 8] (Boc-FH[Sta]L[ξPhg]-OH),"solubility ([1]; pH 7.4 buffer, pH 7.4, aqueous buffer, pH 7.4 buffer, read-out: pH 7.4 Buffer mg/ml (solubility)): 1.8 mg/mL; solubility [1, 3]: 0.6 mg/mL; Human Plasma, % inhibition at (concentration not given) (human plasma renin): 44%; Dog Plasma, % inhibition at 1000 (dog plasma renin): 45%"
–,–,2.1,2.4,"CC(C)C[C@H](NC(=O)C[C@H](O)[C@H](CC(C)C)NC(=O)[C@H](Cc1c[nH]cn1)NC(=O)[C@H](Cc1ccccc1)NC(=O)OC(C)(C)C)C(=O)NCCC(N)C(=O)O (single isomer, unassigned) [Example 5 (Isomer A)]","solubility [1, 3]: 1.72 mg/mL; Human Plasma, % inhibition at 1000 (human plasma renin; at 1000 .eta.M): 25%; Dog Plasma, % inhibition at 1000 (dog plasma renin; listed as 5 A): 15%"
–,–,10.7,2200,"CC(C)C[C@H](NC(=O)C[C@H](O)[C@H](CC(C)C)NC(=O)[C@H](Cc1c[nH]cn1)NC(=O)[C@H](Cc1ccccc1)NC(=O)OC(C)(C)C)C(=O)NCCC(N)C(=O)O (single isomer, unassigned) [Example 5 (Isomer B)]","Human Plasma, % inhibition at (concentration not given) (human plasma renin): 0%; Dog Plasma, % inhibition at 1000 (dog plasma renin; listed as 5 B): 22%"

# From patent publication US4636491A, “Renin inhibitory peptides having improved solubility” (Merck & Co., Inc., priority 1984, dated 1987)
